B1: AtGTR1 (Arabidopsis thaliana) (protein)
chain: MERKPLEVEPSTTTTNTDVVDSFEEEQRKIVYRGWKVMPFIIGNETFEKLGIIGTLSNLLVYLTSVFNLKSYTAATIINAFSGTINFGTFIAAFLCDTYFGRYKTLSVAVIACFLGSFVILLTAAIPSLHPVACGNKISCEGPSVGQILFLLMGLGFLVVGAGGIRPCNLAFGADQFNPKSESGKKGINSFFNWYFFTFTFAQIISLTAVVYIQSNVSWTIGLIIPVALMFLACVIFFAGDRLYVKVKASGSPLAGIARVIAAAIKKRGLKPVKQPWVNLYNHIPSNYANTTLKYTDQFRFLDKAAIMTPEEKLNSDGTASDPWKLCTLQQVEEVKCIVRVIPIWFASTIYYLAITIQMTYPVFQALQSDRRLGSGGFRIPAATYVVFLMTGMTVFIIFYDRVLVPSLRRVTGLETGISLLQRIGAGFTFAIMSLLVSGFIEERRRNFALTKPTLGMAPRTGEISSMSALWLIPQLTLAGIAEAFAAIGQMEFYYKQFPENMKSFAGSIFYVGAGVSSYLASFLISTVHRTTAHSPSGNWLAEDLNKAKLDYFYFMLTGLMVVNMAYFLLMARWYRYKGGNDEDITEIETNEEETKQQQLQDKNSV
notes: full-length synthesized cDNA with C-terminal 8-His-tag in pESC-URA; expressed in S. cerevisiae FGY217; theoretical 68 kDa; homodimer after purification

Legend:
[1] = molecular target: T1, AtGTR1 (Arabidopsis thaliana, UniProt Q944G5); assay: inhibition of glucotropaeolin uptake in yeast, RP-HPLC; assay type: cell-based
T1 construct: gene NPF2.10; full-length synthesized cDNA with C-terminal 8-His-tag in pESC-URA; expressed in S. cerevisiae FGY217; theoretical 68 kDa; homodimer after purification
T1 sequence (Q944G5 31-636): B1 chain

[2] = substrate: O=S(=O)(O)O/N=C(\Cc1ccccc1)S[C@@H]1O[C@H](CO)[C@@H](O)[C@H](O)[C@H]1O; assay: yeast uptake assay, RP-HPLC of desulfo-glucosinolate; assay type: cell-based, Arabidopsis thaliana; conditions: 15 min uptake, 2.5-320 μM substrate, pH 5.5, 30 °C, proton-coupled, apparent
[3] = substrate: O=S(=O)(O)O/N=C(/Cc1c[nH]c2ccccc12)S[C@@H]1O[C@H](CO)[C@@H](O)[C@H](O)[C@H]1O; assay: as above; assay type: cell-based, Arabidopsis thaliana; conditions: 15 min uptake, 2.5-320 μM substrate, pH 5.5, 30 °C, proton-coupled, apparent

Molecule	IC50 [1]	Km [2]	Km [3]
O=C(O)c1ccccc1O [SA, salicylic acid]	630 ± 47.5 µM	–	–
O=C(O)Cc1c[nH]c2ccccc12 [IAA, 3-indoleacetic acid]	762 ± 48.1 µM	–	–
CC/C=C\C[C@H]1C(=O)CC[C@@H]1CC(=O)O [JA, jasmonic acid]	938 ± 114 µM	–	–
B1	–	13.6 ± 1.55 µM	8.2 ± 0.60 µM

Source: PMC8948214, “Transport efficiency of AtGTR1 dependents on the hydrophobicity of transported glucosinolates” (Scientific Reports, 2022)
